target: T1, human IDO1/HEK293 cells (Homo sapiens, UniProt P14902); assay: HEK Human IDO-1 cell-based IDO inhibition assay (kynurenine production); conditions: HEK293 cells stably expressing human IDO1, 20 hours incubation, absorbance at 490 nm; read-out: HEK Human IDO-1 Bio Activity (IDO IC50)
T1 construct: expressed in transfected cells
Method: They were cultured in medium (DMEM with 10% FBS) containing 1 mg/ml G418 for two weeks.
The human IDO1/HEK293 cells were seeded at 10,000 cells per 50 μL per well with RPMI/phenol red free media contains 10% FBS in a 384-well black wall clear bottom tissue culture plate (Matrix Technologies LLC) 100 nL of certain concentration of compound was then added to each well using ECHO liquid handling systems. The cells were incubated for 20 hours in 37° C. incubator with 5% CO2.
The compound treatments were stopped by adding trichloroacetic acid (Sigma-Aldrich) to a final concentration at 0.2%. The cell plate was further incubated at 50° C. for 30 minute. The equal volume supernatant (20 μL) and 0.2% (w/v) Ehrlich reagent (4-dimethylaminobenzaldehyde, Sigma-Aldrich) in glacial acetic acid were mixed in a new clear bottom 384-well plate. This plate was then incubated at room temperature for 30 minute. The absorbance at 490 nm was measured on Envision plate reader.

T1 sequence (P14902 whole entry): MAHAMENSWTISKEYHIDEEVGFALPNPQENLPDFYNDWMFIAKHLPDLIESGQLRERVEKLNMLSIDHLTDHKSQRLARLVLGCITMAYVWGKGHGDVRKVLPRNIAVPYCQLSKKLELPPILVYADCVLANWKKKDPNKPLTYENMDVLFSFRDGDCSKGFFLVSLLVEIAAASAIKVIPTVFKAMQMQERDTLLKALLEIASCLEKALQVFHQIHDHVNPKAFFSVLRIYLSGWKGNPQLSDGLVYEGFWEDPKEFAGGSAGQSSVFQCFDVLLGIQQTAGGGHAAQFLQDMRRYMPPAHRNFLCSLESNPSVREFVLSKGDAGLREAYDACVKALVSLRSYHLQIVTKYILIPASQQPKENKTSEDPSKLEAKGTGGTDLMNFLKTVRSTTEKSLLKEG

Structure (SMILES) | IC50
CCC(NC(=O)c1ccc(Cl)cc1)C1CCC(c2cccc(C(F)F)n2)CC1 (single isomer, unassigned) [Example 231c, 4-chloro-N-(1-(4-(6-(difluoromethyl)pyridin-2-yl)cyclohexyl)propyl)benzamide] | < 2000 nM
CCC(NC(=O)c1ccc(Cl)cc1)C1CCC(c2cccc(C(F)F)n2)CC1 (single isomer, unassigned) [Example 231d, 4-chloro-N-(1-(4-(6-(difluoromethyl)pyridin-2-yl)cyclohexyl)propyl)benzamide] | < 2000 nM
CCC(NC(=O)c1ccc(Cl)cc1)C1CCC(c2cccc(C(F)F)n2)CC1 (single isomer, unassigned) [Example 231e, 4-chloro-N-(1-(4-(6-(difluoromethyl)pyridin-2-yl)cyclohexyl)propyl)benzamide] | < 50 nM
Cc1cccc(S(=O)(=O)N[C@H](C)[C@H]2CC[C@@H](c3ccnc4ccc(F)cc43)CC2)c1 [Example 40, N—((R)-1-((1 s,4S)-4-(6-Fluoroquinolin-4-yl)cyclohexyl)ethyl)-3-methylbenzenesulfonamide] | < 2000 nM
Cc1ccc(S(=O)(=O)N[C@H](C)[C@H]2CC[C@@H](c3ccnc4ccc(F)cc43)CC2)cc1 [Example 41, N-((R)-1-((1s,4S)-4-(6-fluoroquinolin-4-yl)cyclohexyl)ethyl)-4-methylbenzenesulfonamide] | < 250 nM
C[C@@H](NS(=O)(=O)c1ccccc1Cl)[C@H]1CC[C@@H](c2ccnc3ccc(F)cc32)CC1 [Example 42, 2-chloro-N-((R)-1-((1s,4S)-4-(6-fluoroquinolin-4-yl)cyclohexyl)ethyl)benzenesulfonamide] | < 2000 nM
C[C@@H](NS(=O)(=O)c1ccc(Cl)cc1)[C@H]1CC[C@@H](c2ccnc3ccc(F)cc32)CC1 [Example 43, 4-chloro-N-((R)-1-((1s,4S)-4-(6-fluoroquinolin-4-yl)cyclohcxyl)ethyl)benzenesulfonamide] | < 2000 nM
C[C@@H](NS(=O)(=O)c1cccc(Cl)c1)[C@H]1CC[C@@H](c2ccnc3ccc(F)cc32)CC1 [Example 44, 3-chloro-N-((R)-1-((1s,4S)-4-(6-fluoroquinolin-4-yl)cyclohexyl)ethyl)benzenesulfonamide] | < 50 nM
COc1cccc(S(=O)(=O)N[C@H](C)[C@H]2CC[C@@H](c3ccnc4ccc(F)cc43)CC2)c1 [Example 45, N-((R)-1-((1s,4S)-4-(6-fluoroquinolin-4-yl)cyclohexyl)ethyl)-3-methoxybenzenesulfonamide] | < 2000 nM
COc1ccc(S(=O)(=O)N[C@H](C)[C@H]2CC[C@@H](c3ccnc4ccc(F)cc43)CC2)cc1 [Example 46, N-((R)-1-((1s,4S)-4-(6-fluoroquinolin-4-yl)cyclohexyl)ethyl)-4-methoxybenzenesulfonamide] | < 2000 nM
C[C@@H](NC(=O)c1ccc(Cl)cc1)[C@H]1CC[C@@H](c2ccnc3ccc(F)cc32)CC1 [Example 47, 4-Chloro-N—((R)-1-((1 s,4S)-4-(6-fluoroquinolin-4-yl)cyclohexyl)ethyl)benzamide] | < 50 nM
C[C@@H](NC(=O)c1ccccc1)[C@H]1CC[C@@H](c2ccnc3ccc(F)cc32)CC1 [Example 48, N-((R)-1-((1s,4S)-4-(6-fluoroquinolin-4-yl)cyclohexyl)ethyl)benzamide] | < 50 nM
Cc1ccccc1C(=O)N[C@H](C)[C@H]1CC[C@@H](c2ccnc3ccc(F)cc32)CC1 [Example 49, N-((R)-1-((1s,4S)-4-(6-fluoroquinolin-4-yl)cyclohexyl)ethyl)-2-methylbenzamide] | < 50 nM
Cc1cccc(C(=O)N[C@H](C)[C@H]2CC[C@@H](c3ccnc4ccc(F)cc43)CC2)c1 [Example 50, N-((R)-1-((1s,4S)-4-(6-fluoroquinolin-4-yl)cyclohexyl)ethyl)-3-methyl benzamide] | < 50 nM
Cc1ccc(C(=O)N[C@H](C)[C@H]2CC[C@@H](c3ccnc4ccc(F)cc43)CC2)cc1 [Example 51, N-((R)-1-((1s,4S)-4-(6-fluoroquinolin-4-yl)cyclohexyl)ethyl)-4-methylbenzamide] | < 50 nM
COc1ccccc1C(=O)N[C@H](C)[C@H]1CC[C@@H](c2ccnc3ccc(F)cc32)CC1 [Example 52, N-((R)-1-((1s,4S)-4-(6-fluoroquinolin-4-yl)cyclohexyl)ethyl)-2-methoxybenzamide] | < 50 nM
COc1cccc(C(=O)N[C@H](C)[C@H]2CC[C@@H](c3ccnc4ccc(F)cc43)CC2)c1 [Example 53, N-((R)-1-((1s,4S)-4-(6-fluoroquinolin-4-yl)cyclohexyl)ethyl)-3-methoxybenzamide] | < 50 nM
C[C@@H](NC(=O)c1ccccc1F)[C@H]1CC[C@@H](c2ccnc3ccc(F)cc32)CC1 [Example 54, 2-fluoro-N-((R)-1-((1s,4S)-4-(6-fluoroquinolin-4-yl)cyclohexyl)ethyl)benzamide] | < 50 nM

Structure (SMILES) | IC50
C[C@@H](NC(=O)c1cccc(F)c1)[C@H]1CC[C@@H](c2ccnc3ccc(F)cc32)CC1 [Example 55, 3-fluoro-N-((R)-1-((1S,4S)-4-(6-fluoroquinolin-4-yl)cyclohexyl)ethyl)benzamide] | < 50 nM
C[C@@H](NC(=O)c1ccccc1Cl)[C@H]1CC[C@@H](c2ccnc3ccc(F)cc32)CC1 [Example 56, 2-chloro-N-((R)-1-((1s,4S)-4-(6-fluoroquinolin-4-yl)cyclohexyl)ethyl)benzamide] | < 50 nM
C[C@@H](NC(=O)c1cccc(Cl)c1)[C@H]1CC[C@@H](c2ccnc3ccc(F)cc32)CC1 [Example 57, 3-chloro-N-((R)-1-((1s,4S)-4-(6-fluoroquinolin-4-yl)cyclohexyl)ethyl)benzamide] | < 50 nM
C[C@@H](NC(=O)c1ccc(Cl)c(Cl)c1)[C@H]1CC[C@@H](c2ccnc3ccc(F)cc32)CC1 [Example 59, 3,4-dichloro-N-((R)-1-((1s,4S)-4-(6-fluoroquinolin-4-yl)cyclohexyl)ethyl)benzamide] | < 50 nM
C[C@@H](NC(=O)c1ccc(F)cc1)[C@H]1CC[C@@H](c2ccnc3ccc(F)cc32)CC1 [Example 60, 4-fluoro-N-((R)-1-((1s,4S)-4-(6-fluoroquinolin-4-yl)cyclohexyl)ethyl)benzamide] | < 50 nM
C[C@@H](NC(=O)c1cccc(-c2ccccc2)c1)[C@H]1CC[C@@H](c2ccnc3ccc(F)cc32)CC1 [Example 61, N-((R)-1-((1s,4S)-4-(6-fluoroquinolin-4-yl)cyclohexyl)ethyl)-[1,1′-biphenyl]-3-carboxamide] | < 50 nM
C[C@@H](NC(=O)c1cc(Cl)cc(Cl)c1)[C@H]1CC[C@@H](c2ccnc3ccc(F)cc32)CC1 [Example 66, 3,5-dichloro-N-((R)-1-((1s,4S)-4-(6-fluoroquinolin-4-yl)cyclohexyl)ethyl)benzamide] | < 50 nM
C[C@@H](NC(=O)c1ccccn1)[C@H]1CC[C@@H](c2ccnc3ccc(F)cc32)CC1 [Example 67, N-((R)-1-((1s,4S)-4-(6-fluoroquinolin-4-yl)cyclohexyl)ethyl)picolinamide] | < 50 nM
COc1ccc(C(=O)N[C@H](C)[C@H]2CC[C@@H](c3ccnc4ccc(F)cc43)CC2)cc1 [Example 68, N-((R)-1-((1s,4S)-4-(6-fluoroquinolin-4-yl)cyclohexyl)ethyl)-4-methoxybenzamide] | < 50 nM
C[C@@H](NC(=O)c1ccccc1-c1ccccc1)[C@H]1CC[C@@H](c2ccnc3ccc(F)cc32)CC1 [Example 69, N-((R)-1-((1s,4S)-4-(6-fluoroquinolin-4-yl)cyclohexyl)ethyl)-[1,1′-biphenyl]-2-carboxamide] | < 50 nM
C[C@@H](NC(=O)c1ccc(-c2ccccc2)cc1)[C@H]1CC[C@@H](c2ccnc3ccc(F)cc32)CC1 [Example 70, N—((R)-1-((1s,4S)-4-(6-fluoroquinolin-4-yl)cyclohexyl)ethyl)-[1,1′-biphenyl]-4-carboxamide] | < 50 nM
CCC(NC(=O)c1ccc(Cl)cc1)[C@H]1CC[C@H](Oc2ccnc3c(C(F)(F)F)cccc23)CC1 (stereo partly drawn) [Example 72, 4-Chloro-N-(1-((trans)-4-((8-(trifluoromethyl)quinolin-4-yl)oxy)cyclohexyl)propyl)benzamide] | < 2000 nM
O=C(Nc1ccc(Cl)cc1)[C@H]1CC[C@H](c2ccnc3ccc(F)cc32)CC1 [Example 75, (trans)-N-(4-Chlorophenyl)-4-(6-fluoroquinolin-4-yl)cyclohexanecarboxamide] | < 250 nM
O=C(Nc1ccc(Cl)cc1)[C@H]1CC[C@@H](c2ccnc3ccc(F)cc32)CC1 [Example 76, (cis)-N-(4-Chlorophenyl)-4-(6-fluoroquinolin-4-yl)cyclohexanecarboxamide] | < 2000 nM
CCC(NC(=O)c1ccc(Cl)cc1)[C@H]1CC[C@@H](Oc2ccnc3ccccc23)CC1 (stereo partly drawn) [Example 80, 4-Chloro-N-(1-(cis-4-(quinolin-4-yloxy)cyclohexyl)propyl)benzamide] | < 2000 nM
O=C(Nc1ccc(-c2ccccc2)cc1)N1CCN(c2ccnc3ccc(F)cc23)CC1 [Example 84, N-([1,1′-Biphenyl]-4-yl)-4-(6-fluoroquinolin-4-yl)piperazine-1-carboxamide] | < 2000 nM
Cc1ccc(C(=O)NCC2CCN(c3ccnc4ccc(F)cc34)CC2)cc1 [Example 86, N-((1-(6-Fluoroquinolin-4-yl)piperidin-4-yl)methyl)-4-methylbenzamide] | < 250 nM
O=C(NCC1CCN(c2ccnc3ccc(F)cc23)CC1)c1ccc(Cl)c(Cl)c1 [Example 87, 3,4-Dichloro-N-((1-(6-fluoroquinolin-4-yl)piperidin-4-yl)methyl)benzamide] | < 250 nM

— patent publication US20180325889A1, “IMMUNOREGULATORY AGENTS” (FLEXUS BIOSCIENCES, INC., priority 2014, published 2018)
